Measured values as given in patent US8916565B2, “Pyrrolopyrazine-spirocyclic piperidine amides as modulators of ion channels” (priority 2011, dated 2014).

Molecular target: human NaV subtype, like NaV 1.7 (Homo sapiens, UniProt Q15858)
Assay: E-VIPR optical membrane potential assay with electrical stimulation
Assay type: cell-based
Details: active against one or more sodium channels; Table 3 does not name the assay or NaV subtype; read-out: Binned Activity Data (IC50)

Chain of human NaV subtype, like NaV 1.7 (Q15858 whole entry): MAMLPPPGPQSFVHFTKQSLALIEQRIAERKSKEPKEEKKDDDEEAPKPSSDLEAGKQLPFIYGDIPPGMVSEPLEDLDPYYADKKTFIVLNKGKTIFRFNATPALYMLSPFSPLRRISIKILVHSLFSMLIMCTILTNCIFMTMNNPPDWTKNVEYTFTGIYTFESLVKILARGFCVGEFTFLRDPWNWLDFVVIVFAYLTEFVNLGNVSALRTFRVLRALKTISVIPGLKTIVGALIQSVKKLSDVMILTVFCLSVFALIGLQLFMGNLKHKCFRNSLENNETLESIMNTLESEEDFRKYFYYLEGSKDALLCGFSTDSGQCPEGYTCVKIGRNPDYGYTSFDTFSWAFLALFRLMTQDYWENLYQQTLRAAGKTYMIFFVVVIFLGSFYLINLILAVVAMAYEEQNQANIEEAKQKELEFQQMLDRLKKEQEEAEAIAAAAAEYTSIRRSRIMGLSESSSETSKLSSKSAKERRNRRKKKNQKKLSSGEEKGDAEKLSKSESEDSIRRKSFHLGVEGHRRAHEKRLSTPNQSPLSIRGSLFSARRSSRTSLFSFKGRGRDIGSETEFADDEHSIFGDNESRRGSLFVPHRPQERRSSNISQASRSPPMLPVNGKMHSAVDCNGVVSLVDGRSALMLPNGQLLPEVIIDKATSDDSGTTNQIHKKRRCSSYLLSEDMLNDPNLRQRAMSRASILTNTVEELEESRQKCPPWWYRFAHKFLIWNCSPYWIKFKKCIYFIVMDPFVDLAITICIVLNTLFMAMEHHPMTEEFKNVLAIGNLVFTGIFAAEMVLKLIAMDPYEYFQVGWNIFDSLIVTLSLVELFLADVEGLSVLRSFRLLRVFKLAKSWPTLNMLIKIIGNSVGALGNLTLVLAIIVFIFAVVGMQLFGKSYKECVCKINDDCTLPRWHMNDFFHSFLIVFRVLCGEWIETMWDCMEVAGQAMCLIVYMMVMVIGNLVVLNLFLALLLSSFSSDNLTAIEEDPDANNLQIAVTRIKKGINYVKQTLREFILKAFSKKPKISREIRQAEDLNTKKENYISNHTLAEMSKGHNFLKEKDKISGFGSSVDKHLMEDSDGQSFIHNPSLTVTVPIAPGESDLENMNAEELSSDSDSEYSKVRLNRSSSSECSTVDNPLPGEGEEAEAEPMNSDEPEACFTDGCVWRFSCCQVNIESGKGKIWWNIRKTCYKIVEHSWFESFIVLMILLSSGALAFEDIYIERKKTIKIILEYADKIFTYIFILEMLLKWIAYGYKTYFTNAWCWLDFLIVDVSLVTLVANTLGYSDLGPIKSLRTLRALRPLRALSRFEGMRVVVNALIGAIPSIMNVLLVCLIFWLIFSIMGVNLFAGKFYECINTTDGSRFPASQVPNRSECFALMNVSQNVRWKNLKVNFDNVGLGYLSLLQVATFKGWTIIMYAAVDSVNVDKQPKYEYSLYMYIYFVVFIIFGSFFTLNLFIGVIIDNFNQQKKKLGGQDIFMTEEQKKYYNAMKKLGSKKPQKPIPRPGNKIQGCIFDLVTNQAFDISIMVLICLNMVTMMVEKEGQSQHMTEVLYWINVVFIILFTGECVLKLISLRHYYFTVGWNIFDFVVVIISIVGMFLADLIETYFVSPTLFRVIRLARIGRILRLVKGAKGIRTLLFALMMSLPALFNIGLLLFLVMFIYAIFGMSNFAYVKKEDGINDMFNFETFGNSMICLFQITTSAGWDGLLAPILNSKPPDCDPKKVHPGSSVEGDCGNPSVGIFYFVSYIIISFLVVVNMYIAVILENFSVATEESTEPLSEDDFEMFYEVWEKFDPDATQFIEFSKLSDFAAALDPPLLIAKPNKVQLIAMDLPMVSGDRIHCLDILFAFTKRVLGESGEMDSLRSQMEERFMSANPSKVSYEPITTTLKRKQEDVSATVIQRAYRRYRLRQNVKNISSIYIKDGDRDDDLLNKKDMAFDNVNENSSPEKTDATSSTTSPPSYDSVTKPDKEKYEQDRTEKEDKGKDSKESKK

SMILES	IC50 [nM]
COc1cc(C(=O)N2CCC3(CC2)c2ccc(C(F)(F)F)n2CCN3C)ccc1C(C)(C)CO [Compound 151]	≤ 2000
Cc1cc(C(=O)N2CCC3(CC2)c2ccc(C(=O)C(F)(F)F)n2CCN3C)ccc1-c1ccn(C)n1 [Compound 295]	> 5000
CN1CCn2c(Cl)ccc2C12CCN(C(=O)c1ccc(-c3ccccc3)cc1)CC2 [Compound 104]	> 5000
CN1CCn2c(C(=O)C(C)(C)C)ccc2C12CCN(C(=O)c1ccc(S(=O)(=O)NC3CC3)cc1)CC2 [Compound 274]	≤ 2000
COc1cc(C(=O)N2CCC3(CC2)NCC(C)n2c(C(=O)C(F)(F)F)ccc23)ccc1OCCOC(F)(F)F (stereo not shown) [Compound 171]	≤ 2000
CN1CCn2c(C(F)(F)F)ccc2C12CCN(C(=O)c1ccc(OC(C)(C)C)cn1)CC2 [Compound 196]	> 5000
COc1cc(C(=O)N2CCC3(CC2)c2ccc(C(F)(F)F)n2CCN3C(C)=O)ccc1OC(C)C [Compound 170]	> 5000
CC(C)Oc1ccc(C(=O)N2CCC3(CC2)c2ccc(C(F)(F)F)n2CCN3C)nc1 [Compound 22]	> 5000
CN1CCn2c(C(=O)C(F)(F)F)ccc2C12CCN(C(=O)c1ccc(COc3ccccc3)cc1)CC2 [Compound 214]	≤ 2000
COc1cc(C(=O)N2CCC3(CC2)N[C@@H](C)Cn2c(C(F)(F)F)ccc23)ccc1OC(C)C [Compound 306]	2000 to 5000
CN1CCn2c(ccc2C(F)(F)C(F)(F)F)C12CCN(C(=O)c1ccc(S(=O)(=O)NC3CC3)cc1)CC2 [Compound 289]	≤ 2000
COc1ccc(C(=O)N2CCC3(CC2)c2ccc(C(C)=O)n2CCN3C)cc1-c1ccccc1 [Compound 205]	> 5000
CC(C)Oc1ccc(C(=O)N2CCC3(CC2)c2cc(C(=O)C(F)(F)F)cn2C(C)(C)CN3C)c(F)c1 [Compound 52]	> 5000
CC(=O)c1ccc2n1CCN(C)C21CCN(C(=O)c2ccc(OC(C)C)c(C#N)c2)CC1 [Compound 285]	2000 to 5000
CN1CCn2c(C(=O)C(F)(F)F)ccc2C12CCN(C(=O)c1ccc(S(=O)(=O)NC3CC3)cc1)CC2 [Compound 33]	≤ 2000
CC(=O)c1ccc2n1CCN(C)C21CCN(C(=O)c2ccc(-c3ccccc3)cc2)CC1 [Compound 163]	> 5000
CC(C)Oc1ccc(C(=O)N2CCC3(CC2)c2ccc(Cl)n2CCN3C)cc1Cl [Compound 250]	≤ 2000

SMILES	IC50 [nM]
Cc1cc(C(=O)N2CCC3(CC2)c2ccc(C(F)(F)F)n2CCN3CCO)ccc1OC(C)C [Compound 156]	≤ 2000
CC(C)Oc1ccc(C(=O)N2CCC3(CC2)NCCn2c(C(F)(F)F)ccc23)cc1 [Compound 273]	2000 to 5000
CN1CCn2c(C(F)(F)F)ccc2C12CCN(C(=O)c1ccnc3ccccc13)CC2 [Compound 49]	≤ 2000
Cc1nc(C(=O)N2CCC3(CC2)c2ccc(C(F)(F)F)n2CCN3C)ccc1OC(C)C [Compound 200]	≤ 2000
CC1(C)Cn2c(C(=O)C(F)(F)F)ccc2C2(CCN(C(=O)c3ccc(S(=O)(=O)C4CC4)cc3)CC2)N1 [Compound 197]	≤ 2000
COc1cc(C(=O)N2CCC3(CC2)c2ccc(C(F)(F)F)n2C[C@H](C)N3C)ccc1OC(C)C [Compound 29]	≤ 2000
COc1ccc(C(=O)N2CCC3(CC2)c2ccc(C(=O)C(F)(F)F)n2C[C@@H](C)N3C)cc1C(F)(F)F [Compound 61]	2000 to 5000
Cc1cc(C(=O)N2CCC3(CC2)c2ccc(C(F)(F)F)n2CCN3C2CC2)ccc1C(C)(C)O [Compound 307]	≤ 2000
CC[C@H](C)Oc1ccc(C(=O)N2CCC3(CC2)c2c(F)cc(C(F)(F)F)n2CCN3C)cc1OC [Compound 141]	≤ 2000
CN1CCn2c(C(=O)C(F)(F)F)ccc2C12CCN(C(=O)c1ccc(Cl)c(O)c1)CC2 [Compound 271]	> 5000
COc1cc(C(=O)N2CCC3(CC2)c2ccc(C(C)=O)n2CCN3C)ccc1C(C)(C)C [Compound 56]	≤ 2000
Cc1cc(C(=O)N2CCC3(CC2)c2ccc(C(=O)C(C)C)n2CCN3C)ccc1OC(C)C [Compound 182]	≤ 2000
CC(C)Oc1ccc(C(=O)N2CCC3(CC2)c2ccc(C(=O)C(C)(C)C)n2CCN3C)cc1Cl [Compound 243]	≤ 2000
CC(C)Oc1ccc(C(=O)N2CCC3(CC2)c2ccc(C(=O)C(F)(F)F)n2CCN3C)cc1C#N [Compound 51]	≤ 2000
CN1CCn2c(C(=O)C(C)(C)C)ccc2C12CCN(C(=O)c1ccc(S(=O)(=O)C(F)(F)F)cc1)CC2 [Compound 93]	≤ 2000
CN1CCn2c(C(=O)C3(C)CC3)ccc2C12CCN(C(=O)c1ccc(S(=O)(=O)NC3CC3)cc1)CC2 [Compound 53]	≤ 2000

Now from value to molecule:

IC50 [nM]	SMILES
2000 to 5000	CN1CCn2c(Cl)ccc2C12CCN(C(=O)c1ccc(S(=O)(=O)NC3CC3)cc1)CC2 [Compound 352]
≤ 2000	Cc1cc(C(=O)N2CCC3(CC2)N[C@H](C)Cn2c(C(F)(F)F)ccc23)ccc1OC(C)C [Compound 308]
≤ 2000	CC(C)Oc1ccc(C(=O)N2CCC3(CC2)c2c(F)cc(C(F)(F)F)n2CCN3C)cc1 [Compound 562]
≤ 2000	C[C@H]1Cn2c(C(=O)C(F)(F)F)ccc2C2(CCN(C(=O)c3ccc(S(=O)(=O)C4CC4)cc3)CC2)N1C [Compound 702]
> 5000	CN1CCn2c(C(=O)C(F)(F)F)ccc2C12CCN(C(=O)c1ccc(S(=O)(=O)C(C)(C)C)cc1)CC2 [Compound 502]
≤ 2000	CC1(C)Cn2c(C(=O)C(F)(F)F)ccc2C2(CCN(C(=O)c3ccc(-c4ccccc4)c(F)c3)CC2)N1 [Compound 576]
> 5000	CC(=O)c1ccc2n1CCN(C)C21CCN(C(=O)c2ccc(C3(O)CCCC3)cc2)CC1 [Compound 309]
≤ 2000	CC(C)Oc1ccc(C(=O)N2CCC3(CC2)c2c(Cl)cc(C(F)(F)F)n2CCN3C)c(F)c1 [Compound 602]
≤ 2000	Cc1nc(C(=O)N2CCC3(CC2)c2ccc(Cl)n2CCN3C)ccc1OC(C)C [Compound 648]
> 5000	CN1CCn2c(Cl)ccc2C12CCN(C(=O)c1ccc(C(C)(C)C)cc1)CC2 [Compound 625]
≤ 2000	CC(=O)c1ccc2n1CC(C)(C)NC21CCN(C(=O)c2ccc(OC(C)C)c(C(F)(F)F)c2)CC1 [Compound 610]
> 5000	CC(=O)c1ccc2n1CCN(C)C21CCN(C(=O)c2ccc(OC(C)C)c(CO)c2)CC1 [Compound 558]
≤ 2000	CC1Cn2c(C(F)(F)F)ccc2C2(CCN(C(=O)c3ccc(OC(C)C)c(F)c3)CC2)N1 (stereo not shown) [Compound 692]
≤ 2000	Cc1cc(C(=O)N2CCC3(CC2)c2c(F)cc(C(F)(F)F)n2CCN3C)ccc1OC(C)C [Compound 672]
≤ 2000	CC(C)CCOc1ccc(C(=O)N2CCC3(CC2)c2ccc(Cl)n2CCN3C)cc1 [Compound 530]
≤ 2000	CN1CCn2c(C(F)(F)F)ccc2C12CCN(C(=O)c1ccc(S(=O)(=O)C(C)(C)C)cc1)CC2 [Compound 441]
> 5000	COc1ccc(C(=O)N2CCC3(CC2)c2ccc(C(=O)C(F)(F)F)n2C(C)(C)CN3C)cc1C(F)(F)F [Compound 596]
≤ 2000	COc1ccc(C(=O)N2CCC3(CC2)NCC(C)n2c(C(=O)C(F)(F)F)ccc23)cc1Cl (stereo not shown) [Compound 341]
≤ 2000	Cc1cc(C(=O)N2CCC3(CC2)c2ccc(C(=O)C(C)(C)C)n2CCN3C)ccc1S(=O)(=O)C(C)C [Compound 654]
> 5000	Cc1cc(C(=O)N2CCC3(CC2)c2ccc(Cl)n2CCN3C)ccc1S(=O)(=O)C(C)C [Compound 750]

IC50 [nM]	SMILES
≤ 2000	Cc1cc(C(=O)N2CCC3(CC2)c2c(C#N)cc(C(F)(F)F)n2CCN3C)ccc1OC(C)C [Compound 526]
≤ 2000	COc1cc(C(=O)N2CCC3(CC2)NC(C)(C)Cn2c(C(=O)C(F)(F)F)ccc23)ccc1OC(C)C [Compound 375]
≤ 2000	CC1(C)Cn2c(C(=O)C(F)(F)F)ccc2C2(CCN(C(=O)c3ccc(OCC4CC4)c(F)c3)CC2)N1 [Compound 509]
≤ 2000	Cc1cc(C(=O)N2CCC3(CC2)c2ccc(C(F)(F)F)n2CCN3C2CC2)ccc1S(=O)(=O)C(C)C [Compound 492]
> 5000	CN1CCn2c(Cl)ccc2C12CCN(C(=O)c1ccc(C3CC3)cc1)CC2 [Compound 400]
≤ 2000	CN1CCn2c(C(=O)C(C)(C)C)ccc2C12CCN(C(=O)c1ccc(S(=O)(=O)C(C)(C)C)cc1)CC2 [Compound 680]
2000 to 5000	COc1cc(C(=O)N2CCC3(NCCn4c(C(F)(F)F)ccc43)C(C)C2)ccc1OC(C)C (stereo not shown) [Compound 506]
≤ 2000	CC(C)CCOc1ccc(C(=O)N2CCC3(CC2)c2ccc(C(=O)C(F)(F)F)n2C(C)CN3C)cc1 (stereo not shown) [Compound 646]
≤ 2000	CN1CCn2c(C(F)(F)F)ccc2C12CCN(C(=O)c1cccnc1N1CCCCC1)CC2 [Compound 346]
≤ 2000	Cc1cc(C(=O)N2CCC3(CC2)c2c(Br)cc(C(F)(F)F)n2CCN3C)ccc1OC(C)C [Compound 340]
2000 to 5000	COc1ccc(C(=O)N2CCC3(CC2)c2ccc(C(=O)C(C)(C)C)n2CCN3C)c(F)c1 [Compound 578]
≤ 2000	CN1CCn2c(C(=O)C(F)(F)F)ccc2C12CCN(C(=O)c1ccc(OCc3ccccc3)cc1)CC2 [Compound 369]
≤ 2000	Cc1cc(C(=O)N2CCC3(CC2)c2ccc(C(=O)C(F)(F)F)n2C(C)(C)CN3C)ccc1OC(C)C [Compound 437]
≤ 2000	CC(C)Oc1ccc(C(=O)N2CCC3(CC2)NC(C)(C)Cn2c(C(=O)C(F)(F)F)ccc23)c(F)c1 [Compound 404]
≤ 2000	CC[C@@H](C)Oc1ccc(C(=O)N2CCC3(CC2)c2ccc(C(C)=O)n2CCN3C)cc1OC [Compound 572]
≤ 2000	CN1CCn2c(C(=O)C(F)(F)F)ccc2C12CCN(C(=O)c1ccc(CC(C)(C)O)cc1)CC2 [Compound 688]
2000 to 5000	Cc1cc(S(=O)(=O)C(C)C)ccc1C(=O)N1CCC2(CC1)c1ccc(C(=O)C(C)(C)C)n1CCN2C [Compound 399]
≤ 2000	CC(C)Oc1ccc(C(=O)N2CCC3(CC2)NC(C)(C)Cn2c(C(F)(F)F)ccc23)cc1F [Compound 655]
> 5000	CC(=O)c1ccc2n1CCN(C)C21CCN(C(=O)c2ccc(OCC3CC3)cc2)CC1 [Compound 388]
≤ 2000	Cc1cc(C(=O)N2CCC3(CC2)c2c(Cl)cc(C(F)(F)F)n2CCN3C)ncc1OC(C)C [Compound 657]
